Source: patent US20230099204A1, “PHARMACEUTICAL COMPOSITION FOR PREVENTION OR TREATMENT OF CANCER IN WHICH KRAS MUTATION AND ACTIVATED RON ARE PRESENT” (WELLMARKER BIO CO., LTD., priority 2020, published 2023)

Key:
HCT8 = experiment: MTS assay, cytotoxicity on colorectal cancer cell line HCT8; format: cell-based; conditions: Homo sapiens, HCT-8, RON wt, KRAS G13D, 72 hours
Method: (§1) MTS assay was performed to compare cytotoxicity of the compounds of Example 1, Example 2, Example 3, Example 4, Example 5, Example 6, and positive control 1 on a colorectal cancer cell line, and a cell death rate of the colorectal cancer cell line was analyzed to compare anticancer activity of the compounds.
(§2) The MTS assay was performed by seeding each colorectal cell line in a 96-well plate at 1,000 cells per well, and after 24 hours, performing treatment with the compounds of Examples 1 to 6 and positive control 1 at various concentrations (0.000001 μM to 10 μM) in 100 μL of 10% FBS-RPMI medium (WELGENE Inc.) per well. The cells were incubated for 72 hours. Then, 20 μL of MTS solution (Promega) was added thereto, and the cells were incubated for 2 hours. Then, the absorbance was measured at 490 nm. The IC50 values for the compounds of Examples 1 to 6 and positive control 1 were calculated using GraphPad Prism™ 5 to investigate cytotoxicity.

DLD1 = experiment: MTS assay, cytotoxicity on colorectal cancer cell line DLD1; format: cell-based; conditions: Homo sapiens, DLD-1, RON wt, KRAS G13D, 72 hours
Method: as §1, §2

HCT15 = experiment: MTS assay, cytotoxicity on colorectal cancer cell line HCT15; format: cell-based; conditions: Homo sapiens, HCT-15, RON Δ160, KRAS G13D, 72 hours
Method: as §1, §2

SW480 = experiment: MTS assay, cytotoxicity on colorectal cancer cell line SW480; format: cell-based; conditions: Homo sapiens, RON Δ155, KRAS G12V, 72 hours
Method: as §1, §2

T84 [1] = experiment: MTS assay, cytotoxicity on colorectal cancer cell line T84; format: cell-based; conditions: Homo sapiens, RON Δ165, KRAS G13D, 72 hours
Method: as §1, §2

T84 [2] = experiment: Cell death induction, trypan blue cell counting, T84; format: cell-based; conditions: T84 with a RON mutation; 1 μM; 48 hours; FIG. 1
Method: Based on the results above, to identify the cell death-inducing ability of the compounds of Example 1 and positive control 1, which are representative materials, preparation was performed by seeding respective colorectal cancer cell lines SNU-[…], HCT8, T84, and SW620 onto 60-mm plates at 3×10^5 cells, and then incubation was performed for 24 hours. Thereafter, treatment with each of Example 1 and positive control 1 was performed at 1μM and incubation was performed for 48 hours. After 48 hours, the cells and cell suspensions were collected by treatment with trypsin, resuspended in 1× PBS and stained using a trypan blue solution (Sigma, cat# T8154). The stained cells were counted using a hemocytometer. Cell counting was repeated, and the mean and the standard deviation were calculated.

[3] = test system: colorectal cancer patient-derived cell lines; experiment: Cell death induction (cleaved caspase 3 staining) in colorectal cancer patient-derived cell lines; format: cell-based, human; conditions: 1 μM, FIG. 4
[4] = test system: SW620 (KRAS G12V/mRON Δ155); experiment: Cell line SW620-transplanted mouse model; format: in vivo, BALB/c nude mice
Method: (§3) 5-Week-old female BALB/c nude mice were purchased and acclimatized for 1 week. Then, human colorectal cancer patient-derived cell line SW620 (KRAS
(§4) G12V/mRON Δ155) at 5×10^6 cells/mouse was injected subcutaneously (100 μL) into the right dorsal side of the mice. The compound of Example 1 was orally administered when the tumor reached a size of about 100 mm^3. The drug was administered once a day for 4 weeks, and tumor size and mouse body weight were measured twice a week. After completion of the drug administration, the experimental animals were euthanized, and then the tumors were extracted and weighed for comparative analysis.
(§5) A portion of the extracted tumor tissue was fixed in 10% formalin and processed into a paraffin block. Then, the block was made into sections. Staining of the slide was performed through immunochemical staining. Another portion of the extracted tumor tissue was subjected to lysis, and then Western blotting was used to identify changes in expression of respective proteins.

[5] = test system: HCT8 (KRAS G13D/pTyr-wtRON(+)); experiment: Cell line HCT8-transplanted mouse model; format: in vivo, BALB/c nude mice
Method: as §3, §4, §5
The experiment was conducted in the same method as the procedure of Experimental Example 3, except that human colorectal cancer patient-derived cell line HCT8 (KRAS G13D/pTyr-wtRON(+)) was used in place of the human colorectal cancer patient-derived cell line SW620 (KRAS G12V/mRON Δ155), and the respective compounds of Example 1, positive control 1, and positive control 2 were administered.

[6] = test system: HCT15 (KRAS G13D/mRON Δ160); experiment: Cell line HCT15-transplanted mouse model; format: in vivo, BALB/c nude mice
Method: 5-Week-old female BALB/c nude mice were purchased and acclimatized for 1 week. Then, human colorectal cancer patient-derived cell line HCT15 (KRAS G13D/mRON Δ160) at 5×10^6 cells/mouse was injected subcutaneously (100 μL) into the right dorsal side of the mice. The compound of Example 1 was orally administered when the tumor reached a size of about 100 mm^3 The drug was administered once a day for 4 weeks, and tumor size and mouse body weight were measured twice a week.
After completion of the drug administration, the tumor tissues were analyzed.

[7] = test system: SW620 (KRAS G12V/mRON Δ155); experiment: Mechanism of action in SW620 overexpressing β-catenin (trypan blue exclusion, Western blotting); format: cell-based, human
Method: Each of an empty vector and human beta-catenin pcDNA3.1 (Plasmid #16828, Addgene) that is a vector into which β-catenin DNA (X87838.1, GENE ID: 1499) is introduced, was transfected into the human colorectal cancer patient-derived cell line SW620 (KRAS G12V/mRON […]), and then treatment with the compound of Example 1 was performed. Subsequently, all cells were collected when 48 hours had elapsed. Cell death induction efficacy was compared and analyzed using a trypan blue exclusion assay. As described above, the cell line SW620 was caused to overexpress β-catenin. Then, treatment with the compound of Example 1 was performed, and cell death induction efficacy was observed. In addition, as described above, the cell line SW 620 was caused to overexpress β-catenin. Then, the sample treated with the compound of Example 1 was used to identify expressions of β-catenin, p-ERK, ERK, c-myc, cyclin D1, pTyr-mRON, mRON, and cleaved caspase 3 with Western blotting.

[8] = immunochemical staining, FIG. 7

Question: How did the IC50 (HCT8) turn out when `CCOc1ccn(-c2ccc(F)cc2)c(=O)c1C(=O)Nc1ccc(Oc2ccnc3cc(-c4ccc(CN5CCOCC5)cn4)sc23)c(F)c1.Cl` [Example 1, 4-ethoxy-N-[3-fluoro-4-({2-[5-(morpholinomethyl)pyridine-2-yl]thieno[3,2-b]pyridine-7-yl}oxy)phenyl]-1-(4-fluorophenyl)-2-oxo-1,2-dihydropyridine-3-carboxamide hydrochloride] was run?
Answer: 0.42 µM

Question: And the IC50 (DLD1)?
Answer: 0.24 µM

Question: And the IC50 (HCT15)?
Answer: 0.23 µM

Question: And the IC50 (SW480)?
Answer: 0.34 µM

Question: And the IC50 (T84 [1])?
Answer: 0.35 µM

Question: And the “cell death induction efficacy” value (T84 [2])?
Answer: cell death induction efficacy was exhibited regardless of mutation type

Question: What about the “cell death induction efficacy” value ([3]; patient-derived cell line expressing a RON mutation or pTyr-wtRON) of the same compound?
Answer: exhibited cell death induction efficacy

Question: What about the “cell death induction efficacy” value ([3]; patient-derived cell line with inactive RON) of the same compound?
Answer: did not exhibit cell death induction efficacy

Question: And the “Tumor growth inhibition (TGI, %)” value ([4]; 30 mg/kg, oral, once a day for 4 weeks)?
Answer: 79.2 ± 2.2%

Question: What about the “expression of cleaved caspase 3 in tumor tissue” value [4, 8] of the same compound?
Answer: induced expression

Question: What about the “expression of cyclin D1 (PD marker) in tumor tissue” value [4, 8] of the same compound?
Answer: decreased expression

Question: And the “expression of pTyr-RON in tumor tissue” value [4, 8]?
Answer: decreased expression

Question: What about the “tumor growth inhibitory efficacy” value ([4]; oral, 4 weeks, Table 5, FIG. 5, FIG. 6) of the same compound?
Answer: high tumor growth inhibitory efficacy

Question: And the “Tumor growth inhibition (TGI, %)” value ([5]; 10 mg/kg, oral, once a day for 4 weeks)?
Answer: 58.5 ± 9.1%

Question: What about the “tumor growth inhibitory efficacy” value ([5]; compared with positive control 1 and positive control 2, FIG. 8) of the same compound?
Answer: high tumor growth inhibitory efficacy

Question: And the “expression of cleaved caspase 3 in tumor tissue” value ([6]; FIG. 13)?
Answer: induced expression

Question: And the “expression of cyclin D1 (PD marker) in tumor tissue” value ([6]; FIG. 13)?
Answer: decreased expression

Question: What about the “expression of pTyr-mRON in tumor tissue” value ([6]; FIG. 13) of the same compound?
Answer: decreased expression

Question: And the “tumor growth inhibitory efficacy” value ([6]; oral, once a day for 4 weeks, FIG. 12)?
Answer: high tumor growth inhibitory efficacy

Question: And the “expression of pTyr-mRON” value ([7]; SW620, empty vector or β-catenin overexpressed, Western blotting, FIG. 11)?
Answer: decreased by the compound of Example 1 regardless of β-catenin

Question: What about the “cell death induction efficacy” value ([7]; SW620 overexpressing β-catenin, 48 hours, trypan blue exclusion, FIG. 10) of the same compound?
Answer: cell death induction efficacy of the compound was decreased

Question: And the “expression of p-ERK, c-myc, and cyclin D1” value ([7]; SW620 transfected with the empty vector, Western blotting, FIG. 11)?
Answer: decreased

Question: What about the “expression of p-ERK, c-myc, and cyclin D1” value ([7]; SW620 with β-catenin overexpressed, Western blotting, FIG. 11) of the same compound?
Answer: increased again
